In US8008329B2 (Dong Wha Pharmaceutical Co., Ltd., priority 2008, dated 2011):
Marks after values point to notes of the source that are not given here.

System: osteoclast differentiation
Assay: Osteoclast differentiation in co-culture of mouse bone marrow cells and ST2 cells, TRAP staining (Examples 8-9)
Type: cell-based
Conditions: for % number of osteoclast (vs. solvent control group): 0.1 μM each, day 7; for activity at 0.1 µM: Mus musculus, Osteoclast, 168 h, Individual treatment (compounds), day 7, read-out: % number of osteoclast (vs. solvent control group)
Description: The differentiation of osteoclast from mouse bone marrow cells was induced by using co-culture system, and inhibitory effect of the drug on osteoclast differentiation was evaluated by treatment of single or combination formulation. Co-culture was performed using mouse bone marrow cells and ST cells of bone marrow-derived stromal cell.
Femora and tibia were aseptically ectomized from 6˜8 week-old male ddY mice to harvest bone marrow cells by a general method using a syringe. The red blood cells were removed from the bone marrow cells, followed by centrifugation. The bone marrow cells were suspended in α-MEM medium supplemented with 10% fetal bovine serum, and the numbers of the eukaryotic cells in the harvested bone marrow cells were counted and then immediately used for a co-culture system.
ST2 cells (RIKEN Cell Bank, Tsukuba, Japan) were cultured in α-MEM medium supplemented with 10% fetal bovine serum until confluent. Then, these cells were diluted to a desired cell number, and used for the experiment.
The bone marrow cells (1×10^5 cells/well) and ST2 cells (3,000 cells/well) prepared in the above were plated in a 96-well plate using α-MEM medium supplemented with 10% fetal bovine serum. At this time, differentiation factors, 1α,25-dihydroxyvitamin D3 (10^−8 M, hereinbelow, referred to as vitamin D3) and dexamethasone (10^−8 M), were co-added to the medium to induce osteoclast differentiation. The medium was replaced with fresh media containing the differentiation factors every 2 to 3 days.
After 7 days, when multinucleated osteoclasts were observed, the medium was removed from the wells, and then the cells were fixed with PBS containing 10% Formalin. Tartrate-Resistant Acid Phosphatase (hereinbelow, referred to as TRAP) was used as a marker to measure the mature osteoclast in consideration of its characteristics showing a positive reaction to a TRAP staining solution. The TRAP staining solution was prepared in such the manner that a substrate, naphtol AS-MS phosphate and a coloring agent (Fast Red Violet LB salt) were dissolved in N,N-dimethylformamide. A 0.1 N NaHCO3 buffer solution containing 50 mM tartaric acid was added thereto, and the mixture was stored at a refrigerator prior to use as a staining solution. The osteoclasts with 6-7 or more nuclei showing a TRAP-positive reaction were counted under a microscope.
Alendronic acid was dissolved in distilled water at a concentration of 0.1 mM, and benzamidine derivatives were dissolved in DMSO at a concentration of 0.1 mM. All of them were diluted 1,000 fold with the differentiation media to a final concentration of 0.1 μM, respectively. In this connection, a control group was maintained in 0.1% DMSO.
As the above described, the sample substances and cells, which were diluted to the desired concentrations, were plated in 96-well plate, and co-cultured. On days 3 and 5 of culture, the media were replaced with fresh differentiation media containing the sample substances. On day 7 of culture, TRAP staining was performed to count the mature multinucleated osteoclast that was formed by differentiation. The mature osteoclasts with 6 or more nuclei were counted under a microscope. The results were expressed as a percentage (%) of the number of mature osteoclast observed in each experimental group, when the number of mature osteoclast in the control group (solvent only) was regarded as 100%. The experiment was performed with 4 wells per experimental group (n=4), and the results were expressed as mean value±standard deviation. In addition, the experiment was repeated at least two times, and Student t-test was applied for significant difference between experimental groups.
The experiment was performed in the same manner as in Example 8 to evaluate the effect of individual or combination treatment of risedronic acid and benzamidine derivatives of Formula 1 on osteoclast differentiation, except using 0.1 μM risedronic acid instead of 0.1 μM alendronic acid. […]

[1] = Combination treatment (alendronic acid + compounds)
[2] = Combination treatment (risedronic acid + compounds)

SMILES | % number of osteoclast (vs. solvent control group) [1] | % number of osteoclast (vs. solvent control group) [2] | activity at 0.1 µM [%]
CNC(=O)c1sc(N)nc1-c1ccc(OCCCCCOc2ccc(C(=N)NO)cc2)cc1 [Compound 285, N-hydroxy-4-{5-[4-(2-amino-5-methylcarbamoyl-thiazol-4-yl)-phenoxy]-pentyloxy}-benzamidine] | 53 ± 0.9% | 40 ± 3.9^ac % | 70 ± 8
CCc1sc(N(C)Cc2ccccc2)nc1-c1ccc(OCCCCCOc2ccc(C(=N)NO)cc2)cc1 [Compound 133, N-hydroxy-4-[5-{4-[2-(benzyl-methyl-amino)-5-ethyl-1,3-thiazol-4-yl]phenoxy}pentyloxy]-benzamidine] | 42 ± 8.3^b % | 25 ± 5.7^ac % | 54 ± 8.3
COCCN(C)c1nc(-c2ccc(OCCCCCOc3ccc(C(=N)NO)cc3)cc2)c(CN2CCOCC2)s1 [Compound 319, N-hydroxy-4-[5-(4-{2-[(2-methoxy-ethyl) -methyl-amino]-5-morpholin-4-ylmethyl-thiazol-4-yl}-phenoxy)-pentyloxy]-benzamidine] | 25 ± 2.6^ab % | 11 ± 3.3^ac % | 54 ± 5.9
CCCCCc1nc(-c2ccc(OCCCCCOc3ccc(C(=N)NO)cc3)cc2)cs1 [Compound 9, N-hydroxy-4-{5-[4-(2-pentyl-1,3-thiazol-4-yl)phenoxy]pentyloxy}-benzamidine] | 52 ± 15.8% | 43 ± 2.6^ac % | 64 ± 3.4
CCN(CC)c1nc(-c2ccc(OCCCCCOc3ccc(C(=N)NO)cc3)cc2)c(C(C)C)s1 [Compound 162, N-hydroxy-4-{5-[4-(5-isopropyl-2-diethylamino-1,3-thiazol-4-yl)phenoxy]pentyloxy}-benzamidine] | 78 ± 1.8% | 61 ± 7.5^ac % | 98 ± 8.2
N=C(NO)c1ccc(OCCCCCOc2ccc(-c3csc(-c4cccnc4)n3)cc2)cc1 [Compound 7, N-hydroxy-4-{5-[4-(2-pyridine-3-yl-1,3-thiazol-4-yl)phenoxy]pentyloxy}-benzamidine] | 35 ± 7.1^b % | 34 ± 10.1^c % | 52 ± 4.8
CN(Cc1cccnc1)c1nc(-c2ccc(OCCCCCOc3ccc(C(=N)NO)cc3)cc2)c(CC2CCCC2)s1 [Compound 147, N-hydroxy-4-[5-(4-{5-cyclopentylmethyl-2-[methyl-(pyridin-3-ylmethyl)amino]-1,3-thiazol-4-yl}phenoxy)pentyloxy]-benzamidine] | 31 ± 3.2^ab % | 14 ± 3.0^ac % | 46 ± 4.1
CCCCc1sc(C(C)(C)C)nc1-c1ccc(OCCCCCOc2ccc(C(=N)NO)cc2)cc1 [Compound 37, N-hydroxy-4-{5-[4-(5-butyl-2-t-butyl-1,3-thiazol-4-yl)phenoxy]pentyloxy}-benzamidine] | 30 ± 9.9^b % | 36 ± 14.4^c % | 68 ± 18.9
CNC(=O)c1sc(C)nc1-c1ccc(OCCCCCOc2ccc(C(=N)NO)cc2)cc1 [Compound 282, N-hydroxy-4-{5-[4-(5-methylcarbamoyl-2-methyl-thiazol-4-yl)-phenoxy]-pentyloxy}-benzamidine] | 49 ± 9.9^ab % | 45 ± 5.2^ac % | 73 ± 7.1
N=C(NO)c1ccc(OCCCCCOc2ccc(-c3nc(-c4ccccc4)sc3N)cc2)cc1 [Compound 330, N-hydroxy-4-{5-[4-(5-amino-2-phenyl-thiazol-4-yl)-phenoxy]-pentyloxy}-benzamidine] | 23 ± 3.9^ab % | 12 ± 2.4^ac % | 46 ± 4.7
N=C(NO)c1ccc(OCCCCCOc2ccc(-c3nc(N4CCOCC4)sc3N3CCSCC3)cc2)cc1 [Compound 291, N-hydroxy-4-{5-[4-(2-morpholin-4-yl-5-thiomorpholin-4-yl-thiazol-4-yl)-phenoxy]-pentyloxy}-benzamidine] | 20 ± 3.8^ab % | 12 ± 3.5^ac % | 44 ± 4.9
Cc1nc(-c2ccc(OCCCCCOc3ccc(C(=N)NO)cc3)cc2)c(N)s1 [Compound 331, N-hydroxy-4-{5-[4-(5-amino-2-methyl-thiazol-4-yl)-phenoxy]-pentyloxy}-benzamidine] | 18 ± 4.6^ab % | 7 ± 1.2^ac % | 43 ± 2.7
Cc1nc(-c2ccc(OCCCCCOc3ccc(C(=N)N)cc3)cc2)c(C)s1 [Compound 54, 4-{5-[4-(2,5-dimethyl-1,3-thiazol-4-yl)phenoxy]pentyloxy}-benzamidine] | 20 ± 4.1^ab % | 19 ± 4.9^ac % | 41 ± 8.3
CNc1nc(-c2ccc(OCCCCCOc3ccc(C(=N)NO)cc3)cc2)c(CN2CCOCC2)s1 [Compound 335, N-hydroxy-4-{5-[4-(2-methylamino-5-morpholin-4-ylmethyl-thiazol-4-yl)-phenoxy]-pentyloxy}-benzamidine] | 41 ± 2.0^ab % | 23 ± 5.0^ac % | 54 ± 0.9
Cc1nc(-c2ccc(OCc3cccc(COc4ccc(C(=N)NO)cc4)c3)cc2)c(C(C)C)s1 [Compound 209, N-hydroxy-4-{3-[4-(5-isopropyl-2-methyl-thiazol-4-yl)-phenoxymethyl]-benzyloxy}-benzamidine] | 41 ± 12.0^ab % | 50 ± 6.1^ac % | 74 ± 7.4
Cc1nc(-c2ccc(OCCCCCOc3ccc(C(=N)NO)cc3)cc2)c(CCN2CCOCC2)s1 [Compound 231, N-hydroxy-4-(5-{4-[2-methyl-5-(2-morpholin-4-yl-ethyl)-thiazol-4-yl]-phenoxy}-pentyloxy)-benzamidine] | 50 ± 9.8^b % | 40 ± 3.1^ac % | 82 ± 14.6
CN(C)c1nc(-c2ccc(OCCCCCOc3ccc(C(=N)NO)cc3)cc2)c(CC2CCCC2)s1 [Compound 163, N-hydroxy-4-{5-[4-(5-cyclopentylmethyl-2-dimethylamino-1,3-thiazol-4-yl)phenoxy]pentyloxy}-benzamidine] | 55 ± 7.6% | 41 ± 7.3^ac % | 65 ± 8.8
CC(C)C(=O)N(C)c1nc(-c2ccc(OCCCCCOc3ccc(C(=N)NO)cc3)cc2)c(CCN2CCOCC2)s1 [Compound 268, N-hydroxy-4-(5-{4-[2-(isobutyryl-methyl-amino)-5-(2-morpholin-4-yl-ethyl)-thiazol-4-yl]-phenoxy}-pentyloxy)-benzamidine] | 28 ± 1.7^b % | 17 ± 3.4^ac % | 52 ± 9.1
Cc1nc(-c2ccc(OCCCCCOc3ccc(C(=N)NO)cc3)cc2)c(CCn2ccnc2)s1 [Compound 222, N-hydroxy-4-(5-{4-[5-(2-imidazol-1-yl-ethyl)-2-methyl-thiazol-4-yl]-phenoxy}-pentyloxy)-benzamidine] | 49 ± 6.8^ab % | 36 ± 6.6^ac % | 74 ± 7.1
Cc1nc(-c2ccc(OCCCCCOc3ccc(C(=N)NO)cc3)cc2)c(CCN2CCCCC2)s1 [Compound 216, N-hydroxy-4-(5-{4-[2-methyl-5-(2-piperidin-1-yl-ethyl)-thiazol-4-yl]-phenoxy}-pentyloxy)-benzamidine] | 72 ± 13.0% | 48 ± 7.8^ac % | 70 ± 5
